According to patent publication US20240270786A1, “STEROID COMPOUNDS” (Epirium Bio Inc., priority 2022, published 2024):

Tests used:
Type in all cases: biochemical, mouse
[1] = tested on: mitochondrial ATP synthase; assay: ATP synthesis (oxygen consumption, Seahorse XF96) in fresh heart mitochondria; settings: Complex I or Complex II substrates (FIG. 1, FIG. 2)
Description: (§1) To assess whether the fraction of synthetic and reverse hydrolytic activities of mitochondrial ATP synthase can be measured in the same preparation, a protocol was developed to monitor changes in oxygen consumption and proton release in response to changes in mitochondrial ATP synthase activity. The proton released and the concomitant changes in the pH can be monitored using the ECAR (extracellular acidification) channel in the Agilent Seahorse XF analyzer using isolated mitochondria, to ensure that the changes in pH cannot be attributed to glycolysis or other contributors to ECAR.
Mice were anesthetized with isoflurane followed by a cervical dislocation, and the heart was immediately removed and placed in ice cold relaxation buffer (5 mM sodium pyrophosphate, 100 mM KCl, 5 mM EGTA, 5 mM HEPES; pH 7.4). […] The mitochondrial pellets were re-suspended in ice cold HES buffer and mitochondrial protein was measured with a BCA assay (Pierce). […]
Oxygen consumption was measured in isolated fresh intact mitochondria from mouse heart, as oxygen consumption is linked to maximal ATP synthesis and proton release when mitochondria are respiring either in the presence of substrates and ADP (ATP synthesizing mitochondria or state 3) or in the presence of substrates but not ADP (state 4). […]

[2] = tested on: mitochondrial ATP synthase; assay: ATP hydrolysis (acidification, Seahorse XF96) in fresh heart mitochondria; settings: fresh heart mitochondria (FIG. 1, FIG. 2)
Description: as §1
Mice were anesthetized with isoflurane followed by a cervical dislocation, and the heart was immediately removed and placed in ice cold relaxation buffer (5 mM sodium pyrophosphate, 100 mM KCl, 5 mM EGTA, 5 mM HEPES; pH 7.4). The heart was squeezed with tweezers to remove blood, minced with scissors, and then placed in a glass-glass Dounce homogenizer with 3 mL of HES homogenization buffer (250 mM sucrose, 5 mM HEPES, 1 mM EDTA; pH to 7.2, adjusted with KOH). The heart tissue was homogenized first with the loose pestle and followed by the tight pestle. The homogenized tissue was placed in a pre-chilled 15 mL conical tube and centrifuged at 900×g (4° C.) for 10 minutes (min). The supernatant was removed, placed in a new tube and centrifuged again at 900×g for 10 min. The supernatant was then transferred to 2 mL microcentrifuge tubes and centrifuged at 10,000×g (4° C.) for 10 min. The mitochondrial pellets were re-suspended in ice cold HES buffer and mitochondrial protein was measured with a BCA assay (Pierce). The concentrated mitochondrial pellet was stored on ice. […]
ATP hydrolysis capacity or state 4 acidification was measured using Seahorse XF96 as described in Divakaruni et al. (2018) Anal Biochem 552:60-65 and Acin-Perez et al. (2021) Life 11(9):949, in MAS (70 mM Sucrose, 220 mM Mannitol, 5 mM KH2PO4, 5 mM MgCl2, 1 mM EGTA, 2 mM HEPES; pH 7.2). […]

[3] = tested on: mitochondrial ATP synthase; assay: Maximal ATP hydrolysis capacity in frozen heart mitochondria; settings: oligomycin at different concentrations in the assay media
Description: Plates were loaded with 0.75-1.5 μg of mouse heart mitochondria, or 25 μg of cell lysate. Cell lysates were prepared by subjecting the samples to 4 cycles of free thaw (liquid nitrogen—37° C. water bath) before measuring protein concentration. When assessing compounds effect on respirometry, the compounds were added in MAS after sample centrifugation. Initial respiration of the samples was sustained by the addition of 5 mM succinate+2 μM rotenone in the MAS after centrifugation. Injections were performed at the following final concentration in the well: Antimycin A (2 μM), oligomycin (5 μM), FCCP (1 μM), ATP (20 mM). To assess maximal ATP concentration, ATP was injected consecutively. An additional assay was developed to determine the maximal ATP hydrolysis capacity in frozen mitochondria. Maximal ATP hydrolytic capacity was assessed in frozen heart mitochondria where mitochondrial respiration is inhibited by Antimycin A and maximal ATP hydrolysis is driven by co-injection of FCCP and ATP, followed by inhibition in the presence of oligomycin.

SMILES: CC[C@H]1/C=C/C=C/C[C@@H](C)[C@H](O)[C@@](C)(O)C(=O)[C@@H](C)[C@H](O)[C@@H](C)C(=O)[C@@H](C)[C@H](O)[C@@H](C)/C=C/C(=O)O[C@@H]2[C@H](C)[C@H](CC1)O[C@]1(CC[C@H](C)[C@H](C[C@@H](C)O)O1)[C@H]2C [Oligomycin, oligomycin, reference compound]
- ATP synthesis [1]: worked as expected
- ATP hydrolysis [2]: worked as expected
- ATP hydrolysis [3]: dose dependent inhibition of ATP hydrolysis
